Key:
velvetleaf = test: Test C postemergence; format: in vivo, Abutilon theophrasti
How it was run: (§1)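 Plants were kept under greenhouse conditions for 13–15 days following spray. Pre-emergent application went to soil (loam–sand), post-emergent to foliage at 1–4 leaves. Evaluation: visual, percent control against untreated checks.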

sedge, umbrella = test: Test B flooded paddy test; format: in vivo, Cyperus difformis; settings: Cyperus difformis, Flood, 250 g ai/ha; 0 to 100 scale where 0 is no effect and 100 is complete control; read-out: Plant response rating, Sedge, Umbrella
How it was run: (§2)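 Evaluation is visual, against untreated controls, 13 to 15 days after treatment. Before treatment, plants reached the 2-leaf stage; pots were then flooded 3 cm deep, compound was added to the water, and that level was maintained. Ratings run 0 to 100, with 100 meaning complete control.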

galium = test: Test C postemergence; format: in vivo, Galium aparine; settings: Galium, post-emergence
How it was run: as §1

rice = test: Test B flooded paddy test; format: in vivo, Oryza sativa; settings: Oryza sativa; Flood, 250 g ai/ha; 0 to 100 scale where 0 is no effect and 100 is complete control; read-out: Plant response rating, Rice
How it was run: as §2

barnyardgrass [1] = test: Test C postemergence; format: in vivo, Echinochloa crus-galli; settings: Echinochloa crus-galli, post-emergence
How it was run: as §1

wheat [2] = test: Test A postemergence; format: in vivo, Triticum aestivum; settings: Triticum aestivum, post-emergence, 240 h, read-out: Plant response rating, Wheat
How it was run: (§3)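 Injury scores run from 0, no effect, to 100, complete control, judged by eye against untreated plants roughly 10 days after treatment. Chemicals carried a surfactant in a non-phytotoxic solvent and went onto loam–sand soil preemergence or onto one- to two-leaf seedlings postemergence.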

barnyardgrass [3] = test: Test A preemergence; format: in vivo, Echinochloa crus-galli
How it was run: as §3

wheat [4] = test: Test A preemergence; format: in vivo, Triticum aestivum
How it was run: as §3

corn [5] = test: Test A preemergence; format: in vivo, Zea mays
How it was run: as §3

corn [6] = test: Test A postemergence; format: in vivo, Zea mays; settings: Zea mays, post-emergence, 240 h
How it was run: as §3

Heteranthera limosa = test: Test B flooded paddy test; format: in vivo; settings: Heteranthera limosa, Flood, 250 g ai/ha; 0 to 100 scale where 0 is no effect and 100 is complete control; read-out: Plant response rating, Ducksalad
How it was run: as §2

barnyardgrass [7] = test: Test A postemergence; format: in vivo, Echinochloa crus-galli; settings: Echinochloa crus-galli, post-emergence, 240 h, read-out: Plant response rating, Barnyardgrass
How it was run: as §3

kochia = test: Test C postemergence; format: in vivo, Kochia scoparia; settings: Bassia scoparia, post-emergence
How it was run: as §1

pigweed [8] = test: Test A preemergence; format: in vivo, Amaranthus retroflexus
How it was run: as §3

pigweed [9] = test: Test C postemergence; format: in vivo, Amaranthus retroflexus
How it was run: as §1

giant foxtail = test: Test A postemergence; format: in vivo, Setaria faberii; settings: Setaria faberi, post-emergence, 240 h, read-out: Plant response rating, Foxtail, Giant
How it was run: as §3

pigweed [10] = test: Test A postemergence; format: in vivo, Amaranthus retroflexus; settings: Amaranthus retroflexus, post-emergence, read-out: Plant response rating, Pigweed
How it was run: as §3

[11] = 31 g ai/ha, postemergence, visual rating, scale 0 to 100 (0 no effect, 100 complete control), 13 to 15 days
[12] = 125 g ai/ha, 0 to 100 scale, 0 no effect, 100 complete control
[13] = 500 g ai/ha, 0 to 100 scale where 0 is no effect and 100 is complete control

## N#Cc1cccc(Oc2ncc(Cl)cn2)c1-n1cc(OCC(F)(F)F)cn1 [Compound 274, 3-[(5-chloro-2-pyrimidinyl)oxy]-2-[4-(2,2,2-trifluoroethoxy)-1H-pyrazol-1-yl]benzonitrile]
velvetleaf; [11]
  Velvetleaf plant response rating: 50
velvetleaf; Abutilon theophrasti, post-emergence, 16 g ai/ha, postemergence, 0 is no effect, 100 is complete control, read-out: Plant response rating (0 to 100), Velvetleaf
  pest or weed control at 16 g/ha: 30%
velvetleaf; Abutilon theophrasti, post-emergence, 125 g ai/ha, postemergence, visual rating, scale 0 to 100 (0 no effect, 100 complete control), read-out: Plant response rating, Velvetleaf
  pest or weed control at 125 g/ha: 75%
velvetleaf; Abutilon theophrasti, post-emergence, Postemergence, 62 g ai/ha, scale 0 to 100 (0 no effect, 100 complete control), 13 to 15 days, read-out: Plant response rating, Velvetleaf
  pest or weed control at 62 g/ha: 65%
sedge, umbrella
  pest or weed control at 250 g/ha: 95%
galium; 16 g ai/ha, postemergence, 0 is no effect, 100 is complete control, read-out: Plant response rating (0 to 100), Galium
  pest or weed control at 16 g/ha: 70%
galium; 31 g ai/ha, postemergence, visual rating, scale 0 to 100 (0 no effect, 100 complete control), 13 to 15 days, read-out: Galium plant response rating
  pest or weed control at 31 g/ha: 80%
galium; 125 g ai/ha, postemergence, visual rating, scale 0 to 100 (0 no effect, 100 complete control), read-out: Plant response rating, Galium
  pest or weed control at 125 g/ha: 98%
galium; Postemergence, 62 g ai/ha, scale 0 to 100 (0 no effect, 100 complete control), 13 to 15 days, read-out: Plant response rating, Galium
  pest or weed control at 62 g/ha: 90%
rice
  plant injury at 250 g/ha: 60%
Barnyardgrass [1]; 16 g ai/ha, postemergence, 0 is no effect, 100 is complete control, read-out: Plant response rating (0 to 100), Barnyardgrass
  pest or weed control at 16 g/ha: 5%
Barnyardgrass [1]; 31 g ai/ha, postemergence, visual rating, scale 0 to 100 (0 no effect, 100 complete control), 13 to 15 days, read-out: Barnyardgrass plant response rating
  pest or weed control at 31 g/ha: 10%
Barnyardgrass [1]; 125 g ai/ha, postemergence, visual rating, scale 0 to 100 (0 no effect, 100 complete control), read-out: Plant response rating, Barnyardgrass
  pest or weed control at 125 g/ha: 15%
Barnyardgrass [1]; Postemergence, 62 g ai/ha, scale 0 to 100 (0 no effect, 100 complete control), 13 to 15 days, read-out: Plant response rating, Barnyardgrass
  pest or weed control at 62 g/ha: 10%
Wheat [2]; [12]
  plant injury at 125 g/ha: 70%
Wheat [2]; [13]
  plant injury at 500 g/ha: 80%
Barnyardgrass [3]; 125 g ai/ha
  Barnyardgrass plant response rating (0 to 100 scale, 0 is no effect, 100 is complete control): 90
Barnyardgrass [3]; Echinochloa crus-galli, pre-emergence, 240 h, 500 g ai/ha, 0 to 100 scale where 0 is no effect and 100 is complete control, read-out: Barnyardgrass plant response rating
  pest or weed control at 500 g/ha: 100%
Wheat [4]; 125 g ai/ha
  Wheat plant response rating (0 to 100 scale): 40
Wheat [4]; Triticum aestivum, pre-emergence, 240 h, 500 g ai/ha, 0 to 100 scale where 0 is no effect and 100 is complete control, read-out: Wheat plant response rating
  plant injury at 500 g/ha: 80%
Corn [5]; 125 g ai/ha
  Corn plant response rating (0 to 100 scale): 50
Corn [5]; Zea mays, pre-emergence, 240 h, 500 g ai/ha, 0 to 100 scale where 0 is no effect and 100 is complete control, read-out: Corn plant response rating
  plant injury at 500 g/ha: 50%
Corn [6]; [12]
  Corn plant response rating (crop injury, 0 = no effect, 100 = complete kill) at 125 g/ha: 80%
Corn [6]; [13]
  Corn plant response rating (crop injury, 0 = no effect, 100 = complete kill) at 500 g/ha: 90%
Heteranthera limosa
  pest or weed control at 250 g/ha: 95%
Barnyardgrass [7]; [12]
  pest or weed control at 125 g/ha: 90%
Barnyardgrass [7]; [13]
  pest or weed control at 500 g/ha: 100%
kochia; 16 g ai/ha, postemergence, 0 is no effect, 100 is complete control, read-out: Plant response rating (0 to 100), Kochia
  pest or weed control at 16 g/ha: 85%
kochia; 31 g ai/ha, postemergence, visual rating, scale 0 to 100 (0 no effect, 100 complete control), 13 to 15 days, read-out: Kochia plant response rating
  pest or weed control at 31 g/ha: 90%
kochia; 125 g ai/ha, postemergence, visual rating, scale 0 to 100 (0 no effect, 100 complete control), read-out: Plant response rating, Kochia
  pest or weed control at 125 g/ha: 100%
kochia; Postemergence, 62 g ai/ha, scale 0 to 100 (0 no effect, 100 complete control), 13 to 15 days, read-out: Plant response rating, Kochia
  pest or weed control at 62 g/ha: 100%
Pigweed [8]; 125 g ai/ha
  Pigweed plant response rating (0 to 100 scale): 100
Pigweed [8]; Amaranthus retroflexus, pre-emergence, 240 h, 500 g ai/ha, 0 to 100 scale where 0 is no effect and 100 is complete control, read-out: Pigweed plant response rating
  pest or weed control at 500 g/ha: 100%
Pigweed [9]; [11]
  Pigweed plant response rating: 85
Pigweed [9]; Amaranthus retroflexus, post-emergence, 16 g ai/ha, postemergence, 0 is no effect, 100 is complete control, read-out: Plant response rating (0 to 100), Pigweed
  pest or weed control at 16 g/ha: 95%
Pigweed [9]; Amaranthus retroflexus, post-emergence, 125 g ai/ha, postemergence, visual rating, scale 0 to 100 (0 no effect, 100 complete control), read-out: Plant response rating, Pigweed
  pest or weed control at 125 g/ha: 98%
Pigweed [9]; Amaranthus retroflexus, post-emergence, Postemergence, 62 g ai/ha, scale 0 to 100 (0 no effect, 100 complete control), 13 to 15 days, read-out: Plant response rating, Pigweed
  pest or weed control at 62 g/ha: 90%
Giant foxtail; [12]
  pest or weed control at 125 g/ha: 90%
Giant foxtail; [13]
  pest or weed control at 500 g/ha: 90%
Pigweed [10]; [12]
  pest or weed control at 125 g/ha: 100%
Pigweed [10]; [13]
  pest or weed control at 500 g/ha: 100%

Reference: patent US9695155B2, “Herbicidal substituted pyrimidinyloxy benzene compounds” (E. I. DU PONT DE NEMOURS AND COMPANY, priority 2013, dated 2017)
